{"source": "patent EP0464206A1", "about": "“DRUG FOR IMPROVING BRAIN FUNCTION” (DAIICHI PHARMACEUTICAL CO., LTD., priority 1989, dated 1990)", "key": {"[1]": {"system": "patients, who suffered from cerebrovascular dementia or Alzheimer's type senile dementia with Parkinson's disease as a complication", "experiment": "Clinical administration of DBcAMP by intravenous drip infusion to dementia patients", "assay_type": "in vivo", "details": "for Side effect / Progress after administration and evaluation (symptom/ condition): 300 mg/day intravenous drip infusion for 8 hours", "method": "300 mg of sodium N⁶-2'-0-dibutyryladenosine-3',5'-cyclic phosphate (hereinafter, abbreviated as DBcAMP) was dissolved in a saline and administered to five patients, who suffered from cerebrovascular dementia or Alzheimer's type senile dementia with Parkinson's disease as a complication, by intravenous drip infusion for approximately 8 hours per day continuously.\nThese patients gave no response to a call and their intellectual level was decreased. […] Therefore, it was recognized that these patients suffered from serious dementia."}, "Acute toxicity in rats": {"experiment": "Acute toxicity in rats", "details": "in vivo, iv; rat, intravenously injected; read-out: LD₅₀", "method": "The cAMP derivative of formula (I) and a salt thereof were administered to rats in order to examine the acute toxicities of these compounds.\n(§1) DBcAMP was intravenously injected into rats and mice to thereby examine the acute toxicity thereof. As a result, LD₅₀ of this compound to rat was 459 mg/kg while that to mouse was 545 mg/kg."}, "Acute toxicity in mice": {"experiment": "Acute toxicity in mice", "details": "in vivo, iv; mouse, intravenously injected; read-out: LD₅₀", "method": "as §1"}, "[2]": {"details": "Test 2: patient five, Cerebrovascular dementia"}}, "data": [{"smiles": "CCCC(=O)Nc1ncnc2c1ncn2[C@@H]1O[C@@H]2COP(=O)(O)O[C@H]2[C@H]1OC(=O)CCC", "note": "[DBcAMP, sodium N⁶-2'-0-dibutyryladenosine-3',5'-cyclic phosphate]", "values": [{"measurement": "Side effect", "setting": "[1]; Test 1: patient three, Alzheimer's type dementia", "result": "None."}, {"measurement": "Progress after administration and evaluation (symptom/ condition)", "setting": "[1]; [2]", "result": "Showed \"Yes\" or \"No\" for simple question by shaking head 1 week after the administration. No speech but groan. Remarkable improvement in symptoms caused by a decline in brain function, compared before the administration."}, {"measurement": "Side effect", "setting": "[1]; [2]", "result": "None."}, {"measurement": "Progress after administration and evaluation (symptom/ condition)", "setting": "[1]; Test 3: patient four, Cerebrovascular dementia (with Parkinson's disease)", "result": "Groaned in night from the second day of the administration, after a year's silence. Groaning became larger thereafter. Improvement in various symptoms caused by a decline in brain function."}, {"measurement": "Side effect", "setting": "[1]; Test 3: patient four, Cerebrovascular dementia", "result": "None."}, {"measurement": "Progress after administration and evaluation (symptom/ condition)", "setting": "[1]; Test 4: patient two, Alzheimer's type dementia (with Parkinson's disease)", "result": "Answered to call 1 week after the administration. Soliloquized in night. Remarkable improvement in symptoms caused by a decline in brain function."}, {"measurement": "Side effect", "setting": "[1]; Test 4: patient two, Alzheimer's type dementia", "result": "None."}, {"measurement": "Side effect", "setting": "[1]; Test 5: patient one, Cerebrovascular dementia, multiple cerebral infarct", "result": "None."}, {"measurement": "symptoms of the complicated Parkinson's disease", "setting": "[1]; five patients, 300 mg/day intravenous drip infusion", "result": "disappearance of oily skin and reduced myosclerosis"}, {"measurement": "LD50", "setting": "Acute toxicity in rats", "result": 459, "unit": "mg/kg"}, {"measurement": "LD50", "setting": "Acute toxicity in mice", "result": 545, "unit": "mg/kg"}]}]}
